Assays:
[1] = system: Monocyte-derived, LPS-induced dendritic cells (mDC); assay: Marker expression on monocyte-derived, LPS-induced dendritic cells treated in vitro with HCQ; type: cell-based, human
Description: FIG. 6. […] CD4+ sorted cells were co-cultured with the mDC-treated groups for an additional 24 hours.
(§1) MFI=Mean Fluorescence Index. […] MFI=Mean Fluorescence Index Sorted CD4+ T cells were then co-cultured with mDCs for an additional 24 hours.

CD4+ sorted cells = assay: PD-1 / PDL1 expression on CD4+ T cells co-cultured with HCQ-treated mDC; type: cell-based, human
Description: (§2) FIG. 6. […] CD4+ sorted cells were co-cultured with the mDC-treated groups for an additional 24 hours. The expression of PD-1 (MFI: 187 vs 212, T(x)=26.4, p<0.01) and intracellular PD-1 (MFI: 46 vs 222, T(x) 161, p<0.01) was increased in T cells when co-cultured with HCQ-treated mDC. h.
as §1
Monocyte-derived dendritic cells (DCs) were isolated from healthy controls and activated with lipopolysaccharide (LPS). […] HCQ-treated and untreated mature DCs were then co-cultured with CD4+ T cells to assess the potential of these DCs in activating the T cells.

[2] = system: T cells cocultured with mDC; assay: Gene expression of regulatory molecules in T cells co-cultured with mDC+HCQ; type: cell-based, human
Description: as §2
Data are expressed as 2(−dCT)×100 of GAPDH.
as §1

[3] = system: patients with early rheumatoid arthritis; assay: Phase II trial of mucosal tolerization to SEQ ID NO. 1: clinical outcome; type: in vivo, human
Description: The model employed here is based on the hypothesis that immune tolerization to a T-cell epitope, such as SEQ ID NO. 1 that may be a contributor of inflammation in patients with rheumatoid arthritis, may lead to detectable clinical improvement. A total of 96 patients with early rheumatoid arthritis, who were not allowed on Methotrexate or biologics, were tested with mucosal tolerization to SEQ ID NO. 1. Patients are defined as “responders” if they meet the response criteria at any time during the study. […] SEQ ID NO. […]

CCN(CCO)CCCC(C)Nc1ccnc2cc(Cl)ccc12 (stereo not shown) [HCQ, hydroxychloroquine]
expression of HLA-DR on mDC ([1]; control 100): 20.8 MFI
expression of CD200 on mDC ([1]; control 264): 409 MFI
expression of IL-10 in mDC ([1]; control 453): 1045 MFI
expression of CD86 on mDC ([1]; control 37983): 34170 MFI
expression of intracellular PD-1 in T cells (CD4+ sorted cells; CD4+ cells co-cultured 24 hours with HCQ-treated mDC, control 46): 222 MFI
expression of PD-1 in T cells (CD4+ sorted cells; CD4+ cells co-cultured 24 hours with HCQ-treated mDC, control 187): 212 MFI
expression of PDL1 on CD4+ T cells (CD4+ sorted cells; cultured in the presence of HCQ-treated DCs (FIG. 12B)): expressed more
Gene expression of CTLA-4 in T cells ([2]; without HCQ 1.74): 15.06 2(−dCT)×100 of GAPDH
Gene expression of FoxP3 in T cells ([2]; without HCQ 3.06): 12.27 2(−dCT)×100 of GAPDH
Gene expression of IL-10 in T cells ([2]; without HCQ 3.71): 7.57 2(−dCT)×100 of GAPDH
Gene expression of TGF β in T cells ([2]; without HCQ 15.00): 23.85 2(−dCT)×100 of GAPDH
effect on the therapeutic activity of SEQ ID NO: 1 ([3]; HCQ use preceding SEQ ID NO: 1 administration): synergistic effect
clinical control ([3]; post hoc evaluation of Phase II trial, preceding use of HCQ in combination with SEQ ID NO. 1 treatment): favored clinical control
